Results reported in the Biogen ADME set (Fang et al. 2023).
Values after ≈ are worked out from the molar mass of the structure shown.

Conditions: for aqueous solubility: pH 6.8

SMILES | fraction unbound, human plasma | fraction unbound, rat plasma | intrinsic clearance, human liver microsomes [mL/min/kg] | intrinsic clearance, rat liver microsomes [mL/min/kg] | MDR1-MDCK efflux ratio | aqueous solubility [µg/mL]
Cc1cc(N2CCCC2c2cc(CCC(=O)O)cc(C)n2)ncn1 (stereo not drawn) | 1 | 1 | ≤ 4.74 | ≤ 10.7 | – | –
CCc1cc(=O)[nH]c(SCCCCC2CCOCC2)n1 | – | – | 34.2 | 287 | 1.12 | –
O=c1cc2c(n[nH]1)-c1cnc(N3CCCCC3)nc1CC2 | – | – | 4.86 | 110 | 0.565 | –
Cc1nn(C)c(C)c1CCC(=O)N1CCN(C)Cc2ccccc21 | – | – | 74.2 | 279 | 45.8 | 53 (≈ 162 µM)
CCCCOc1ccc(C(=O)NCc2cc(C)on2)cc1 | – | – | 11.8 | 421 | 0.563 | 4.2 (≈ 14.6 µM)
CC1(C)CC(CC(=O)NCCn2ccnn2)CC(C)(C)N1 | – | – | ≤ 4.74 | ≤ 10.7 | 0.186 | –
CC(C)CNc1nnc(SCc2ccncc2)s1 | – | – | 30.9 | 631 | 1.03 | 48 (≈ 171 µM)
COc1c(C)cnc(Cn2cnc3c(Cl)nc(N)nc32)c1C | – | – | 8.46 | 72.9 | – | –
CCc1ccc(CNc2nncs2)o1 | – | – | 7.77 | 46.9 | 0.666 | –
CCOc1ccccc1CNCCc1c[nH]c2ccccc12 | – | – | 127 | 2170 | 3.34 | 39.6 (≈ 135 µM)
CCCc1cc(O)nc(SCC(=O)N2CCN(C)CC2)n1 | – | – | ≤ 4.74 | ≤ 10.7 | 23.9 | –
CN1CCN(c2ccc(NC(=O)c3ccc(S(=O)(=O)N4CCCc5ccccc54)cc3)cc2)CC1 | – | – | 526 | 727 | 8.78 | 10.1 (≈ 20.6 µM)
COCCNc1ncnc2ccsc12 | – | – | ≤ 4.74 | 22.9 | 0.711 | 40.8 (≈ 195 µM)
O=c1c2c(nc3ccccn13)CCN(S(=O)(=O)C1CCCCC1)C2 | – | – | 19.9 | 1100 | 1.18 | 33.2 (≈ 95.7 µM)
CC(C)(C)Sc1c(CC(C)(C)C(=O)O)n(Cc2ccc(Cl)cc2)c2ccc(OCc3ccc4ccccc4n3)cc12 | – | – | 28.7 | 142 | 2.37 | 6.1 (≈ 10.4 µM)
O=C(O)Cc1nc2ccccc2[nH]1 | – | – | – | – | – | 10.1 (≈ 57 µM)
COc1cc(F)c(NCC(=O)Nc2ccc(C)cc2)cc1OC | – | – | 31.7 | 269 | 0.669 | 47.6 (≈ 150 µM)
CSc1ncccc1C(=O)Nc1ccc(N2CCCCC2=O)cc1 | – | – | ≤ 4.74 | 17.8 | 8.14 | 8.97 (≈ 26.3 µM)
O=C(CCc1cccs1)Nc1ccc(N2CCOCC2)cn1 | – | – | 21.6 | 49.2 | 0.618 | 32.2 (≈ 101 µM)
CC(C)c1cc(N2CCc3[nH]nc(C4CC4)c3C2)n2nccc2n1 | – | – | 70.4 | 381 | 6.42 | 23.8 (≈ 73.7 µM)
CCn1nccc1CNc1nnc(-c2ccc(OC)cc2)o1 | – | – | 6.62 | 76.2 | 1.89 | 27.1 (≈ 90.6 µM)
Cn1ncnc1COc1nn2c(-c3c(F)cccc3F)nnc2cc1C1CCC1 | – | – | ≤ 4.74 | 40.8 | 73.4 | 41.4 (≈ 104 µM)
